Measured values reported in US9533961B2, “Molecules having certain pesticidal utilities, and intermediates, compositions, and processes related thereto” (priority 2014, dated 2017).
Where two headings read alike, the source gives them in different places.

What was measured:
Format in all cases: in vivo
[1] = test system: Yellow Fever Mosquito (Aedes aegypti, AEDSAE) ("YFM"); experiment: Bioassay on Yellow Fever Mosquito (YFM), 96-well plate larval assay; conditions: about 1 day-old larvae, from 4000 ppm master plate, scored on mortality after 3 days
Description: Certain molecules disclosed in this document were tested against YFM using procedures described in the following paragraph. In the reporting of the results, the “YFM Rating Table” was used (See Table Section).
Master plates containing 400 μg of a molecule dissolved in 100 μL of dimethyl sulfoxide (DMSO) (equivalent to a 4000 ppm solution) are used. A master plate of assembled molecules contains 15 μL per well. To this plate, 135 μL of a 90:10 water:acetone mixture is added to each well. A robot (Biomek® NXP Laboratory Automation Workstation) is programmed to dispense 15 μL aspirations from the master plate into an empty 96-well shallow plate (“daughter” plate). There are 6 reps (“daughter” plates) created per master. The created daughter plates are then immediately infested with YFM larvae.
The day before plates are to be treated, mosquito eggs are placed in Millipore water containing liver powder to begin hatching (4 g. into 400 mL). After the daughter plates are created using the robot, they are infested with 220 μL of the liver powder/larval mosquito mixture (about 1 day-old larvae). After plates are infested with mosquito larvae, a non-evaporative lid is used to cover the plate to reduce drying. Plates are held at room temperature for 3 days prior to grading. After 3 days, each well is observed and scored based on mortality.

[2] = test system: Green Peach Aphid (Myzus persicae, MYZUPE) ("GPA"); experiment: Bioassay on Green Peach Aphid (GPA), foliar spray on cabbage seedlings; conditions: 72 h, read-out: GPA % Control (or Mortality) rating
Description: Certain molecules disclosed in this document were tested against GPA using procedures described in the following example. In the reporting of the results, the “GPA Rating Table” was used (See Table Section).
Cabbage seedlings grown in 3-inch pots, with 2-3 small (3-5 cm) true leaves, were used as test substrate. The seedlings were infested with 20-50 GPA (wingless adult and nymph stages) one day prior to chemical application. Four pots with individual seedlings were used for each treatment. Test compounds (2 mg) were dissolved in 2 mL of acetone/methanol (1:1) solvent, forming stock solutions of 1000 ppm test compound. The stock solutions were diluted 5× with 0.025% Tween 20 in water to obtain the solution at 200 ppm test compound. A hand-held aspirator-type sprayer was used for spraying a solution to both sides of […] leaves until runoff. Reference plants (solvent check) were sprayed with the diluent only containing 20% by volume of acetone/methanol (1:1) solvent. Treated plants were held in a holding room for three days at approximately 25° C. and ambient relative humidity (RH) prior to grading. Evaluation was conducted by counting the number of live aphids per plant under a microscope. Percent Control was measured by using Abbott's correction formula (W. S. Abbott, “A Method of Computing the Effectiveness of an Insecticide” J. Econ. Entomol. 18 (1925), pp. 265-267) as follows. Corrected % Control=100*(X−Y)/X • where • X=No. of live aphids on solvent check plants and • Y=No. of live aphids on treated plants

[3] = test system: Beet Armyworm (Spodoptera exigua, LAPHEG) ("BAW"); experiment: Bioassay on Beet Armyworm (BAW), 128-well diet tray assay; conditions: 168 h, read-out: BAW % Control (or Mortality) rating
Description: (§1) Certain molecules disclosed in this document were tested against BAW and CEW using procedures described in the following examples. In the reporting of the results, the “BAW & CL Rating Table” was used (See Table Section).
Bioassays on BAW were conducted using a 128-well diet tray assay. one to five second instar BAW larvae were placed in each well (3 mL) of the diet tray that had been previously filled with 1 mL of artificial diet to which 50 μg/cm^2 of the test compound (dissolved in 50 μL of 90:10 acetone-water mixture) had been applied (to each of eight wells) and then allowed to dry. Trays were covered with a clear self-adhesive cover and held at 25° C., 14:10 light-dark for five to seven days. Percent mortality was recorded for the larvae in each well; activity in the eight wells was then averaged. The results are indicated in the table entitled “Table ABC: Biological Results” (See Table Section).

[4] = test system: Cabbage Looper (Trichoplusia ni, TRIPNI) ("CL"); experiment: Bioassay on Cabbage Looper (CL), 128-well diet tray assay; conditions: 168 h, read-out: CL % Control (or Mortality) rating
Description: as §1
Bioassays on CL were conducted using a 128-well diet tray assay. one to five second instar CL larvae were placed in each well (3 mL) of the diet tray that had been previously filled with 1 mL of artificial diet to which 50 μg/cm^2 of the test compound (dissolved in 50 μL of 90:10 acetone-water mixture) had been applied (to each of eight wells) and then allowed to dry. Trays were covered with a clear self-adhesive cover and held at 25° C., 14:10 light-dark for five to seven days. Percent mortality was recorded for the larvae in each well; activity in the eight wells was then averaged. The results are indicated in the table entitled “Table ABC: Biological Results” (See Table Section).

[5] = 200 ppm foliar spray on cabbage seedlings, three days, Abbott corrected % control
[6] = 50 μg/cm^2 on artificial diet, second instar larvae, five to seven days, 25° C., average of eight wells

SMILES	YFM % Control (or Mortality) rating [1]	mortality at 200 ppm [2, 5] [%]	mortality at 50 µg/cm2 [3, 6] [%]	mortality at 50 µg/cm2 [4] [%]	mortality at 200 ppm ([2]; foliar) [%]	mortality at 50 µg/cm2 [3] [%]
COc1cccc(C(=O)Nc2ccc(-c3ncn(-c4ccc(OC(F)(F)C(F)(F)F)cc4)n3)cc2)c1 [F14, 3-Methoxy-N-(4-(1-(4-(perfluoroethoxy)phenyl)-1H-1,2,4-triazol-3-yl)phenyl)benzamide]	A (80-100)	0	50 to 100	50 to 100	–	–
CC(C)c1cccc(C(=O)NCCc2ccc(-c3ncn(-c4ccc(OC(F)(F)F)cc4)n3)cc2)c1 [F41, 3-Isopropyl-N-(4-(1-(4-(trifluoromethoxy)phenyl)-1H-1,2,4-triazol-3-yl)phenethyl)benzamide]	D (No activity noticed in this bioassay)	0	0	50 to 100	–	–
Cc1cccc(C)c1Nc1ccccc1C(=O)Nc1ccc(-c2ncn(-c3ccc(C(F)(F)F)cc3)n2)cc1 [F2, 2-((2,6-Dimethylphenyl)amino)-N-(4-(1-(4-(trifluoromethyl)phenyl)-1H-1,2,4-triazol-3-yl)phenyl)benzamide]	–	–	–	0	0 to 80	0
O=C(Nc1ccc(-c2ncn(-c3ccc(OC(F)(F)F)cc3)n2)cc1)c1ccccc1Nc1ccccc1 [F7, 2-(phenylamino)-N-(4-(1-(4-(trifluoromethoxy)phenyl)-1H-1,2,4-triazol-3-yl)phenyl)benzamide]	A (80-100)	0 to 80	50 to 100	50 to 100	–	–
